Like-named read-outs stand apart in the source and are kept apart here.
Tests used:
[1] = target: saccharase/isomaltase (SI complex) (Sus scrofa, UniProt P56729); experiment: Stability with respect to small intestine α-glucosidases: saccharase/isomaltase; settings: 120 min incubation
Description: Solution 6: 1% solution of maltose in solution 1
Solution 7: 1% solution of sucrose in solution 1
Solution 8: 1% solution of isomalt in solution 1
Solution 9: 1% solution of isomaltulose in solution 1
Solution 10: Saccharase/isomaltase enzyme complex in solution 1

[2] = test system: glucoamylase/maltase (GM complex)
Description: (§1) Solution 1: 0.1 mol/L triethanolamine (TEA) buffer, pH 7.0
(§2) Solution 11: Glucoamylase/maltase enzyme complex in solution 1
(§3) i) 0.7 unit of the enzyme complex saccharase/isomaltase (solution 10) or glucoamylase/maltase (solution 11) was added in each case to 1.0 mL of a carbohydrate solution heated to 37° C. (solution 2 to solution 8), mixed and incubated at 37° C.
(§4) ii) For incubation under more severe conditions, 16 units of the enzyme complex saccharase/isomaltase or 13 units of the enzyme complex glucoamylase/maltase were used. The reaction was stopped after 2 h by heating to 95° C. for 15 min. The resulting monosaccharides and the undegraded saccharides of the relevant batches were quantitatively determined by HPAEC.

[3] = test system: glucoamylase/maltase (GM complex); experiment: Stability with respect to small intestine α-glucosidases: glucoamylase/maltase; settings: 120 min incubation
Description: as §1, §2, §3, §4

[4] = test system: human feces; experiment: In vitro fermentation in human feces; format: cell-based; settings: for Butyrate content (end sample): end of fermentation with human feces; for Degradation rate: 0.5% (w/v) substrate, feces suspension, anaerobic, 37° C.
Description: Incubation of carbohydrates with human feces allows statements to be made about the rate of metabolization by the bacterial population and formation of the short-chain fatty acid butyric acid.
To invest the fermentability in an in vitro fermentation experiment, Raftilose® P95 (fructooligosaccharides, DP4-5), galactosyl lactose (Oligomate DP 3) and lactosucrose were used for comparison as carbohydrates of similar structure and degree of polymerization, in addition to β-galactosyl isomalts.
An anaerobic medium of the following composition was used for the in vitro experiments:
9 mL of the anaerobic medium 1 described above are mixed with 0.5% (w/v) of the galactosyl isomalts to be tested (prepared according to Examples 1-3) and the corresponding controls lactosucrose and galactosyl lactose and then inoculated with 1 mL of a 10% feces suspension (mixed feces from two subjects) in anaerobic 50 mmol/L phosphate buffer, pH 7.0, to which 0.5 g/L cysteine/HCl was added beforehand as reducing agent.
The batches are then incubated in “Hungate” test tubes for a maximum of 28 h while shaking at 37° C. Samples are taken at various times and tested for content of residual oligosaccharides, short-chain fatty acids, lactic acid and pH.

[5] = Stability in the stomach: hydrolysis rate at pH 2.0; format: physicochemical; settings: 1% solution, 10 mmol/L hydrochloric acid, pH 2.0, 37° C.
Description: The stability of a substance in the gastric passage can be simulated by determining the hydrolysis rate at pH 2.0. Sucrose and 1-kestose are used as controls.
In each case a 1% solution of the trisaccharides (DP 3) from Example 4 is incubated with 10 mmol/L hydrochloric acid, pH 2.0 at 37° C. for 3 h. Samples are taken from the reaction mixture after 60, 120 and 180 min and are analyzed by basic anion exchange chromatography, HPAEC.

[6] = test system: pancreatin enzyme (Sigma); experiment: Stability with respect to pancreatic enzymes; format: in vitro ADME; settings: 1% solution, 0.2% pancreatin, pH 7.0, 210 min at 37° C.
Description: The pancreatic secretion contains a large number of hydrolases, including carbohydrate-degrading enzymes like α-amylase, which breaks down α-1,4-glucans (starch, glycogen) preferably to maltose and maltooligosaccharides. The test of the stability of saccharides with respect to pancreatic enzymes is carried out as follows.
3.0 mL of a carbohydrate solution (solution 2 to solution 6) is mixed with 0.1 mL of the enzyme solution (solution 7) per batch:
Solution 1: 20 mmol/L Na phosphate buffer, pH 7.0, with 6 mmol/L NaCl
Solution 2: 1% solution of β-1,4-galactosyl isomalt mixture in accordance with the invention, prepared according to Example 2 and Example 4, in solution 1
Solution 3: 1% solution of β-1,3-galactosyl isomalt mixture in accordance with the invention, prepared according to Example 1 and Example 4, in solution 1
Solution 4: 1% solution of β-1,6-galactosyl isomalt mixture in accordance with the invention; prepared according to Example 3 and Example 4, in solution 1
Solution 6: 1% starch solution (soluble starch, according to Zulkowski), in solution 1
Solution 7: 0.2% pancreatin enzyme (Sigma), dissolved in solution 1
After 210 min incubation in a thermomixer (interval shaking) at 37° C., the reaction is stopped by heating to 95° C. for 15 min and the samples are analyzed by HPAEC. The starch-containing sample (solution6+solution 7) is completely hydrolyzed before the HPAEC analysis by heating for 3 h in 1 mol/L hydrochloric acid at 95° C., and the glucose resulting from this is determined in order to calculate the starch content of the sample.

[7] = test system: lactase; experiment: Stability with respect to lactase; format: in vitro ADME; settings: 0.9 unit lactase, 1% solution, 37° C., 6 h
Description: The enzyme lactase that is present at the mucosa in the small intestine serves in vivo to break down lactose that gets into the small intestine and the resulting monosaccharides are absorbed into the bloodstream through the intestinal wall.
The enzyme lactase is isolated in a modified method of Wallenfels, K., and Fischer, J. (Z. Physiologische Chemie 321 (1960) 223).
Solutions 1-5: see Example 8c)
Solution 6: 1% solution of lactose in solution 1
Solution 7: 1% solution of isomalt in solution 1
Solution 8: Lactase in solution 1
(solutions 2-7), mixed and incubated at 37° C. The reaction is stopped after 6 h by heating to 95° C. for 15 min.

[8] = Standard (0.7 unit), 37° C., pH 7.0

saccharase/isomaltase (SI complex), sequence (P56729 with tags, fused parts or gaps limits assumed): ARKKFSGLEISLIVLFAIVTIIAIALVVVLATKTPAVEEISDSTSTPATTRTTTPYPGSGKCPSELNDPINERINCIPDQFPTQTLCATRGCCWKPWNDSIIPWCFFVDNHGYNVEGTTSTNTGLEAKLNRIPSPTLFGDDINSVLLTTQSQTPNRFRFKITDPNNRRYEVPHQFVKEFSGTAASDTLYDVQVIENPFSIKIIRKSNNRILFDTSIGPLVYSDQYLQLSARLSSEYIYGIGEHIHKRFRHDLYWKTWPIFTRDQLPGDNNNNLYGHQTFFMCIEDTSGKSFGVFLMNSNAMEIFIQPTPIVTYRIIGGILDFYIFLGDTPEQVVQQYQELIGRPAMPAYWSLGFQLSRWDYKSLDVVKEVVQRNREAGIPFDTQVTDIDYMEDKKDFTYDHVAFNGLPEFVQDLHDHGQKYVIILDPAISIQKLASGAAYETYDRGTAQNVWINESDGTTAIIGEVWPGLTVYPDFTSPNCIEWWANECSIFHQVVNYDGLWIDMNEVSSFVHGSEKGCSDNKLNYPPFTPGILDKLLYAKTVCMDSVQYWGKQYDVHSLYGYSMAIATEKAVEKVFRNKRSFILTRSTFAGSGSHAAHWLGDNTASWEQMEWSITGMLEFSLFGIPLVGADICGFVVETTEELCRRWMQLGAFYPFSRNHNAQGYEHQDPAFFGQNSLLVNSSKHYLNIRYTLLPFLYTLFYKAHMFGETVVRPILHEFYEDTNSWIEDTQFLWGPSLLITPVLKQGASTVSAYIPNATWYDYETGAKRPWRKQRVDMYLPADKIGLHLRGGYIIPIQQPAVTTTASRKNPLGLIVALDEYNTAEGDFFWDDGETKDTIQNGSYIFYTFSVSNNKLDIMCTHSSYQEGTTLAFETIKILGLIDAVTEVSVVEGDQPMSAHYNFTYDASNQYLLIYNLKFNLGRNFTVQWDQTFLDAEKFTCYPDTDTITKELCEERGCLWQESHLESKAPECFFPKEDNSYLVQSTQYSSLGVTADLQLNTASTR
saccharase/isomaltase (SI complex), sequence (P56729 with tags, fused parts or gaps limits assumed): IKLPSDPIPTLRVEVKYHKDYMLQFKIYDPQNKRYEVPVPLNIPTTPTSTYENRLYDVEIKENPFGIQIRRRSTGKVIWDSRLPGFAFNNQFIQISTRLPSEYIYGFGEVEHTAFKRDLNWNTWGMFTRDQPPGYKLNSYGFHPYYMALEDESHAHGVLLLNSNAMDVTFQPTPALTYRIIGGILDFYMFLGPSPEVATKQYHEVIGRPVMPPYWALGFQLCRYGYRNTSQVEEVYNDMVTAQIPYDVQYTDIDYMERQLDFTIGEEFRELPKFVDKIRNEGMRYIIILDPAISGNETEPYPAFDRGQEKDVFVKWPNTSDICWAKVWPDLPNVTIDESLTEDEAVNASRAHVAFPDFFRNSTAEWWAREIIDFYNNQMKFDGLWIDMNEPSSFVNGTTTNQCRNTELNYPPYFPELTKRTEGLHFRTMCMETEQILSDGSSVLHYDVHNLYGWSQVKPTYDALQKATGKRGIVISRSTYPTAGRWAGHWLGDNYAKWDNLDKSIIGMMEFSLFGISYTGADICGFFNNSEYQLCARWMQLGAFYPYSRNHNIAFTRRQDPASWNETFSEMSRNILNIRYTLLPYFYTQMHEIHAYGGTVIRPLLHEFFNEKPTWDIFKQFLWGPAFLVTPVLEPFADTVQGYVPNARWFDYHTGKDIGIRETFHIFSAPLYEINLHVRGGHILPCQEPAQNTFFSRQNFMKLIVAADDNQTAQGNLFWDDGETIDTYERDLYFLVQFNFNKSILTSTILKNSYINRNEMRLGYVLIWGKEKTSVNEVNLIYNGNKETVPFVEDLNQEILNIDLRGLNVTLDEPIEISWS

Row | Compound | Hydrolysis rate [%] [3, 8] | Butyrate content (end sample) [4] | Degradation rate ([4]; incubation time 7 (h)) | Degradation rate ([4]; incubation time 22 (h)) | Hydrolysis rate [%] ([5]; incubation time 0 min) | Hydrolysis rate [%] ([5]; incubation time 60 min) | Hydrolysis rate [%] ([5]; incubation time 120 min) | Hydrolysis rate [%] ([5]; incubation time 180 min) | Hydrolysis rate [%], incubation with lactase [7] | also measured
1 | OC[C@H]1O[C@H](OC[C@H]2O[C@](O)(CO)[C@@H](O)[C@@H]2O)[C@H](O)[C@@H](O)[C@@H]1O [Isomaltulose, 6-O-α-D-glucopyranosyl-(1→6)-β-D-fructofuranose] | – | – | – | – | – | – | – | – | – | Hydrolysis rate [%] ([1]; More stringent (16 units)): 79.0%; Hydrolysis rate [%] [1, 8]: 18.0%; Hydrolysis rate [%] [2]: 39.9%; Hydrolysis rate [%] ([2]; pH 7): 3.1%
2 | OC[C@H]1O[C@H](O[C@H]2[C@H](O)[C@@H](O)[C@H](O)O[C@@H]2CO)[C@H](O)[C@@H](O)[C@@H]1O [Maltose] | Nearly complete hydrolysis | – | – | – | – | – | – | – | – | –
3 | galactosyl lactose [Galactosyl-Lactose (Oligomate DP 3), reference compound] | – | 6.3 mmol/L | 96.6% | 100% | – | – | – | – | – | content of butyrate formed at the end of the fermentations [4]: about 6 mmol/L; Degradation rate ([4]; incubation time 7 (h), listed as galactosyl lactose): nearly completely metabolized; Degradation rate ([4]; incubation time 14 (h)): 99.5%
4 | OCC1O[C@@H](OCC2O[C@H](OC[C@@H](O)[C@@H](O)[C@H](O)C(O)CO)C(O)C(O)[C@@H]2O)C(O)C(O)[C@H]1O (mixture of isomers) [β-1,6-Galactosyl isomalt, β-D-galactosyl-(1→6)-α-D-glucosyl-(1→6)-D-sorbitol(β-1,6-galactosyl-1,6-GPS) and β-D-galactosyl-(1→6)-α-D-glucosyl-(1→1)-D-mannitol(β-1,6-galactosyl-1,1-GPM)] | 0% | 15.3 mmol/L | 64.2% | 96.1% | 0% | 0% | 0% | <1% | 9.3% | Decomposition rate [%] [6]: <1%; Hydrolysis rate [%] ([3]; More stringent (13 units)): 0%; Degradation rate ([4]; incubation time 28 (h)): 99.2%
5 | Isomalt | – | – | – | – | – | – | – | – | – | Hydrolysis rate [%] ([1]; More stringent (16 units)): 52.4%; Hydrolysis rate [%] ([1]; More stringent (16 units), listed as isomalt): 52%; Hydrolysis rate [%] [1, 8]: 3.5%; Hydrolysis rate [%] ([1]; Standard (0.7 unit), 37° C., pH 7.0, listed as isomalt): partially broken down; Hydrolysis rate [%] [2]: 12.8%; Hydrolysis rate [%] ([2]; pH 7): 0%
6 | OC[C@H]1O[C@@](CO)(OC[C@@]2(O[C@H]3O[C@H](CO)[C@@H](O)[C@H](O)[C@H]3O)O[C@H](CO)[C@@H](O)[C@@H]2O)[C@@H](O)[C@@H]1O [1-Kestose, reference compound] | – | – | – | – | 0% | 11% | 25% | 36% | – | –
7 | OC[C@H]1O[C@@H](O[C@H]2[C@H](O)[C@@H](O)[C@@H](O[C@]3(CO)O[C@H](CO)[C@@H](O)[C@@H]3O)O[C@@H]2CO)[C@H](O)[C@@H](O)[C@H]1O [Lactosucrose, reference compound] | – | 6.5 mmol/L | 98.9% | – | – | – | – | – | – | content of butyrate formed at the end of the fermentations [4]: about 6 mmol/L; Degradation rate ([4]; incubation time 7 (h), listed as lactosucrose): nearly completely metabolized; Degradation rate ([4]; incubation time 14 (h)): 100%
8 | OCC1O[C@@H](O[C@@H]2C(CO)O[C@H](OC[C@@H](O)[C@@H](O)[C@H](O)C(O)CO)C(O)C2O)C(O)C(O)[C@H]1O (mixture of isomers) [β-1,4-Galactosyl isomalt, β-D-galactosyl-(1→4)-α-D-glucosyl-(1→6)-D-sorbitol (β-1,4-galactosyl-1,6-GPS) and β-D-galactosyl-(1→4)-α-D-glucosyl-(1→1)-D-mannitol(β-1,4-galactosyl-1,1-GPM)] | 0% | – | 61% | 97.7% | 0% | 0% | 0% | <1% | 13.4% | Decomposition rate [%] [6]: <1%; Hydrolysis rate [%] ([3]; More stringent (13 units)): 0%; Degradation rate ([4]; incubation time 28 (h)): 96%
9 | OC[C@H]1O[C@@](CO)(O[C@H]2O[C@H](CO)[C@@H](O)[C@H](O)[C@H]2O)[C@@H](O)[C@@H]1O [Sucrose, reference compound] | – | – | – | – | 0% | 2% | 5% | 8% | – | Hydrolysis rate [%] ([1]; Standard (0.7 unit), 37° C., pH 7.0, listed as saccharose): Nearly complete hydrolysis
10 | OC[C@H]1O[C@@H](O[C@H]2[C@H](O)[C@@H](O)C(O)O[C@@H]2CO)[C@H](O)[C@@H](O)[C@H]1O (some centres unmarked) [Lactose, reference compound] | – | – | – | – | – | – | – | – | 95.6% | Hydrolysis rate [%], incubation with lactase ([7]; listed as lactose): Nearly complete hydrolysis

Reference: patent publication US20060008574A1, “Galactosyl isomalt, method for production and use thereof” (priority 2002, published 2006)
